# Measured values published in patent US9144579B2, “Polyesters and methods of use thereof” (Rutgers, The State University of New Jersey, priority 2012, dated 2015).
# Where two headings read alike, the source gives them in different places.
# Assays:
# [1] = system: NCTC clone 929 (strain L) mouse areolar fibroblast cells (L929 cells); conditions: 0.5% DMSO
# Experimental: Polymers and diacids were separately dissolved in dimethyl sulfoxide (DMSO) and diluted with cell media to reach concentrations of 0.10 and 0.05 mg/mL. These solutions were sterilized under UV at λ=254 nm for 900 s (Spectronics Corporation, Westbury, N.Y.) and then allocated to wells in a 96-well plate with 2000 cells/well. DMSO (0.5%) in cell media was used as negative control.
# Cell viability was determined using CellTiter 96® Aqueous One Solution Cell Proliferation Assay. After 24 h, 48 h, and 72 h incubation with polymers or diacids, 20 μL of (3-(4,5-dimethylthiazol-2-yl)-5-(3-carboxymethoxyphenyl)-2-(4-sulfophenyl)-2H-tetrazolium) (MTS) reagent was added to each well and further incubated for 2 h at 37° C. The absorbance was then recorded with a microplate reader (Coulter, Boulevard Brea, Calif.) at 492 nm.
# [2] = Structure determination of released drugs (1H-NMR of day 5 release media); assay type: physicochemical; conditions: released at day 5, 1H-NMR chemical shifts and integration
# Experimental: Release media from day 5 (time point with the highest drug concentration) were freeze-dried for 24 h at −40° C. and 133×10^−3 mBar (LABCONO Freeze Dry System/Freezon 4.5). The resulting white powder was dissolved in acidic water (5 mL, pH˜1) and extracted with DCM (5×3 mL). DCM was evaporated under reduced pressure and the samples dried under vacuum for 2 days. Solutions of the free drugs (1 and 2) were prepared and treated as described above for the release media. ^1H-NMR spectroscopy was used to confirm the chemical structures of the released drugs.
Compound,"cell proliferation / viability ([1]; 0.05 mg/mL, 24, 48 and 72 h)","cell proliferation / viability ([1]; 0.10 mg/mL, 24, 48 and 72 h)",chemical structure of drug released from polymer versus free drug [2]
"CC(C)Cc1ccc(C(C)C(=O)OC(C(=O)O)C(OC(=O)C(C)c2ccc(CC(C)C)cc2)C(=O)O)cc1 (stereo not drawn) [6a, Ibuprofen-tartaric diacid]",normal cell proliferation,normal cell proliferation,
"COc1ccc2cc(C(C)C(=O)OC(C(=O)O)C(OC(=O)C(C)c3ccc4cc(OC)ccc4c3)C(=O)O)ccc2c1 (stereo not drawn) [6b, Naproxen-Tartaric Diacid]",normal cell proliferation,normal cell proliferation,
"CC(C)Cc1ccc(C(C)C(=O)O)cc1 (stereo not drawn) [compound 1, ibuprofen]",,,preserved
"COc1ccc2cc([C@H](C)C(=O)O)ccc2c1 [compound 2, naproxen]",,,preserved
